No end group written: not given here.
What was measured:
[1] = tested on: cobblestone area forming cells (CAFC); experiment: Cobblestone assay (CAFC); type: cell-based, mouse
Description: The cobblestone assay was conducted as described by Ploemacher and colleagues (Ploemacher et al., Blood 74:2755-63, 1989; van der Sluijs et al., Exp. Hematol. 18:893-6, 1990; Ploemacher et al., Blood 78:2527-33, 1991; Ploemacher et al., J. Tiss. Cult. Meth. 13:63-68, 1991; Down and Ploemacher, Exp. Hematol. 21:213-21, 1993). The cobblestone assay measures the appearance of groups of cells (or “cobblestones”) within a monolayer of stromal cells. Very primitive stem cells will not form colonies in soft agar but do form cobblestones in the presence of a stromal monolayer. The cells which form cobblestones are referred to as “cobblestone area forming cells” (CAFC). The more differentiated (e.g., GM-CFC) progenitors form transient cobblestones which appear and then disappear within the first few weeks of culture whereas more primitive stem cells (e.g., long-term repopulating cells) form cobblestones which appear only after 4-5 weeks of culture. Thus, CAFC forming on days 7-14 of culture are enriched in CFU-GM, CAFC forming on […] are enriched in CFU-MIX, and CAFC forming on days 28-35 are enriched in long-term repopulating cells. […]
The frequency of cobblestone area forming cells (CAFC) was calculated as previously described (Ploemacher et al., Blood 78:2527-33, 1991; Ploemacher et al., J. Tiss. Cult. Meth. 13:63-68, 1991; Breems et al., Leukemia 8:1095-104, 1994). […]

[2] = tested on: CFU-MIX; experiment: Stimulation of cycling of quiescent murine stem cells after i.v. administration; type: in vivo; conditions: Table 43, untreated B6D2F1 mice, 150 μg/mouse i.v., marrow 24 hours later
Description: Human alpha hemoglobin was injected i.v. into untreated B6D2F1 mice. 24 hours later, the mice were sacrificed, bone marrow collected from femurs and the CFU-MIX assay conducted as in Example 24.

[3] = tested on: CFU-MIX; experiment: Stimulation of cycling of quiescent murine stem cells, CFU-MIX cycling assay in vitro; type: cell-based, mouse; conditions: Table 44, 100 ng/ml, alone
[4] = tested on: CFU-GEMM; experiment: CFU-GEMM cycling assay, human umbilical cord blood cells; type: cell-based
Description: In order to investigate the ability of purified INPROL from porcine bone marrow to affect cycling on human progenitors, umbilical cord blood cells were obtained. Either the total mononuclear cell fraction obtained after separation on Ficoll or the CD34^+ fraction obtained after fractionation on anti-CD34 affinity columns (CellPro Inc.) was used. Cells were incubated for 48 hours in vitro in the presence of interleukin 3 (IL-3) and stem cell factor (SCF) (100 ng/ml each) in order to ensure that the early stem cells were in cycle. After this preincubation, cycling assays were conducted as described in Example 14 for the mouse except that CFU-GEMM (instead of CFU-MIX) were counted on Day 18 after plating.
The human cord blood CFU-GEMM cycling assay was conducted as in Example 19. Specifically, mononuclear cells were isolated from human umbilical cord blood cells and adjusted to 24×10^4 cells/ml in IMDM tissue culture medium supplemented with 10% FBS, 100 ng/ml kit ligand and 100 ng/ml human IL-3. The cells were incubated for 48 hours at 37° C.
After incubation, cells were washed and resuspended in serun-free NDM at a concentration of 10^6 cells/ml. One ml of cells was added to each of two polypropylene tubes per condition and the cycling assay conducted as in Example 24 for mouse bone marrow. After the Ara C incubation cells were washed with cold NDM and adjusted to 10,000 to 20,000 cells per 0.5 ml IMDM and mixed with 5 ml Methocult H4433 (Stem Cell Technologies). Alternatively, Methocult H4435 methylcellulose medium (Stem Cell Technologies) was used in which case the cell concentration was adjusted to 2500-5000 cells per 0.5 ml IMDM. The cells were plated as in Example 24 and CFU-GEMM colonies scored on days 14-18.

[5] = Distribution of ubiquitin fusion proteins between soluble fraction and precipitate of E. coli lysate (SDS-PAGE); type: physicochemical; conditions: after centrifugation of the bacterial lysate
Description: To obtain protein for assay, 100 ml starter cultures in 250 ml shake flasks were grown from single colonies by overnight incubation (16-20 hours) in 2×YT medium with ampicillin (100 μg/ml), neomycin (10 μg/ml) and 1% glucose. Shaker flask cultures were maintained at 30° C. and 250 rpm in a New Brunswick environmental shaker incubator. The next morning the culture was diluted to liter with medium Cells were induced by IPTG addition to 1 mM (final dilution) at OD600=0.5 and harvested at OD600=0.8 by centrifugation. The harvested cells were resuspended in hypotonic lysis buffer (100 μl of 50 mM Tris, pH 10.0). The bacterial cells were lysed by subjecting the suspension to three cycles of freeze-thaw (dry ice-ethanol bath for freezing and 60° C. for thawing). The suspension was then sonicated for 10 min and centrifuged at 12,000 g for 10 min. The resulting supernatant was designated as “S1”. The cell pellet was resuspended in 50 mM Tris, pH10 and 2×SDS tricine loading buffer (Novex, San Diego, Calif.) (1:1). The mixture was then heated at 95° C. for 15 min and centrifuged at 12,000 g for 10 min. The portion of the precipitate capable of being resolubilized in this manner was called “P1”. The portion of the precipitate derived from the remaining pellet was called “P2”. P2 was resuspended in loading buffer as for P1. Samples from S1, P1 and P2 were analyzed by SDS-PAGE. […]

[6] = Table 32, cord blood mononuclear cells, 100 ng/ml

Row | Substance | increase of the proportion of late-forming CAFC ([1]; cycling stem cells (testosterone propionate treated B6D2F1), 100 ng/10^6 cells, 4 hours) | effect on CAFC of non-cycling stem cells ([1]; non-cycling stem cells) | % Kill [2] [%] | % Kill [3] [%] | % Kill ([4]; Table 16, cord blood mononuclear cells, 100 ng/ml) [%] | % Kill [4, 6] [%] | % Kill ([4]; Table 32, cord blood mononuclear cells, 1 ng/ml) [%] | % Kill ([4]; Table 32, cord blood mononuclear cells, 10 ng) [%] | fraction of bacterial lysate containing the peptide [5]
1 | Human alpha chain: purified, non-recombinant human alpha hemoglobin chain isolated by reversed-phase HPLC | approximately 5 fold | no effect | 48 | 48 | −23 | 0 |  |  | 
2 | FPHFDLSHGSAQV [Peptide 43-55, amino acids 43-55 of human alpha hemoglobin] |  |  |  |  |  | 5 | 20 | 12 | contained in the soluble fraction
